{
  "source": "patent US8394367B2",
  "about": "“IL6R/IL6 chimera for therapy of chemotherapy-induced peripheral neuropathy” (Yeda Research and Development Co., Ltd., priority 2004, dated 2013)",
  "key": {"[1]": {"test_system": "dorsal root ganglia (DRG) cultures", "test": "Protection of the axonal network in DRG cultures intoxicated by vincristine (βIII-tubulin immunostaining)", "format": "cell-based, mouse", "details": "10 nM vincristine for 2 days; βIII-tubulin staining", "method": "(§1) IL-6R/IL-6 chimera (Chebath et al, 1997) was used to explore prevention against vincristine intoxication in vitro. For this purpose, cultures of dorsal root ganglia (DRG) from mouse embryos (day E17) in which neuronal outgrowth was stimulated by Nerve Growth Factor (NGF), were subsequently exposed to 10 nM vincristine which induces a progressive axonal degeneration process (Wang et al., J Neuropathol Exp Neurol. 2000 July; 59(7):599-606). […] Neurodegeneration was further examined by monitoring the proteolytic activation of caspase-3, which denotes the early stages of apoptosis in various neuropathies (Russell et al, Neurobiol Dis. 1999 October; 6(5):347-63).\n(§2) DRGs were prepared as detailed before (Haggiag et al, 1999, 2001) from embryos of (C57BL/6×129Sv) F1 mice. In some experiments, corresponding IL-6−/− mutant mice were used (Mendel et al, 1998). The DRGs were seeded onto glass coverslips (precoated with a solution of 20 μg/ml poly-D-lysine, 250 μg/ml fibronectin), which were placed in 12-well Costar plates. The regular culture medium was 0.5 ml DMEM/F12 medium with 1% N2 supplement, 10% fetal bovine serum, 2% horse serum, 1.4 mM glutamine (all from Gibco/Invitrogen) and 50 ng/ml NGF (2.5S; Alomone Labs, Jerusalem, Israel). Cultures were maintained at 37° C., 5% CO2 and medium replaced every third day. […]"}, "[2]": {"test_system": "activated caspase-3 in DRG cultures", "test": "Caspase-3 activation (apoptosis) in DRG cultures treated with vincristine", "format": "cell-based, mouse", "details": "10 nM vincristine for 5 days", "method": "as §1, §2"}, "[3]": {"test_system": "dorsal root ganglia (DRG) cultures", "test": "Regeneration of DRG cultures after vincristine removal (βIII-tubulin and GFAP immunostaining)", "format": "cell-based, mouse", "details": "5 nM vincristine day 5 to 10, 6 more days without drug; IL-6-/- DRG", "description": "I further investigated whether the IL-6R/IL-6 could have neural regenerative effects by adding IL-6R/IL-6 after the action of vincristine had taken place. Cultures in which the axonal network was formed in the presence of NGF for 5 days were either continued for another 11 days without or with IL-6R/IL-6 (Panel A and B, respectively), or treated for 5 days by vincristine at which time vincristine was removed and culture continued for 6 more days (panels C-F). […] These experiments indicate that IL-6R/IL-6 chimera promotes regeneration of neural and glial cells when added after exposure to the chemotherapeutic agent.\nas §2"}, "[4]": {"test_system": "peripheral neuropathy caused by carboplatin/paclitaxel", "details": "at the doses and regime tested; cited from earlier work"}},
  "note": "“Also recorded” adds a separate entry of the source.",
  "data": [
    {"compound": "CC[C@]1(O)C[C@H]2CN(CCc3c([nH]c4ccccc34)[C@@](C(=O)OC)(c3cc4c(cc3OC)N(C=O)[C@H]3[C@@](O)(C(=O)OC)[C@H](OC(C)=O)[C@]5(CC)C=CCN6CC[C@]43[C@@H]65)C2)C1", "note": "[vincristine]", "values": [
      {"measurement": "Loss of axons in DRG outgrowth caused by vincristine", "setting": "[1]", "value": "considerable loss of axons; also recorded: extensive neurodegeneration"},
      {"measurement": "Caspase-3 activation caused by vincristine", "setting": "[2]", "value": "Positive reaction to antibodies against activated caspase-3"},
      {"measurement": "Degeneration of the axonal network 6 days after vincristine removal", "setting": "[3]", "value": "extensive degeneration of the axonal network was still observed; also recorded: extensive degeneration of the axonal network was still present"}
    ]},
    {"compound": "LIF: recombinant leukemia inhibitor factor (LIF), another gp130 activator", "values": [
      {"measurement": "Prevention of CIPN in clinical trials", "setting": "[4]", "value": "ineffective"}
    ]}
  ]
}
